Values of other authors as cited in patent US20200179352A1, “USE OF VALBENAZINE FOR TREATING LEVODOPA-INDUCED DYSKINESIA” (Neurocrine Biosciences, Inc., priority 2017, published 2020).

Conditions: series of 448 patients with various hyperkinetic movement disorders treated with tetrabenazine from 1997-2004

COc1cc2c(cc1OC)C1CC(=O)C(CC(C)C)CN1CC2 (stereo not shown) [tetrabenazine, 3-isobutyl-9,10-dimethoxy-1,3,4,6,7,11b-hexahydro-2H-pyrido[2,1-a]isoquinolin-2-one]
adverse event rate for parkinsonism: 15.4%
